Key:
[1] = tested on: IFN-gamma-secreting T-cells; experiment: Activated T-cells, IFN-gamma-secreting T-cells in splenocytes, TKI started after immunization; assay type: in vivo, C57Bl6 mice; details: 200 mg/kg daily oral gavage from Day 15, post immunotherapy (Days 3 and 17); spleens Day 31
From the text: (§1) Mice were sacrificed on Day 31 and the spleens were removed and evaluated for induction of a primary T-cell response by quantifying the number of IFN-gamma-secreting T-cells per 5×10^5 splenocytes when stimulated using an ovalbumin-specific peptide.
as §1

Pyk2 = biological target: T1, Pyk2 (Homo sapiens, UniProt Q14289); experiment: Western blot of phosphorylated Pyk2 in stimulated Jurkat cells; assay type: cell-based; details: anti-CD3 10 minutes, increasing concentrations 0, 12.5, 50 mcg/ml
T1 construct: Nutrients-starved human T cell clones (Jurkat cells) were stimulated; endogenous in cells; host or cells: Jurkat cells (human T cell line)
T1 sequence (Q14289 whole entry): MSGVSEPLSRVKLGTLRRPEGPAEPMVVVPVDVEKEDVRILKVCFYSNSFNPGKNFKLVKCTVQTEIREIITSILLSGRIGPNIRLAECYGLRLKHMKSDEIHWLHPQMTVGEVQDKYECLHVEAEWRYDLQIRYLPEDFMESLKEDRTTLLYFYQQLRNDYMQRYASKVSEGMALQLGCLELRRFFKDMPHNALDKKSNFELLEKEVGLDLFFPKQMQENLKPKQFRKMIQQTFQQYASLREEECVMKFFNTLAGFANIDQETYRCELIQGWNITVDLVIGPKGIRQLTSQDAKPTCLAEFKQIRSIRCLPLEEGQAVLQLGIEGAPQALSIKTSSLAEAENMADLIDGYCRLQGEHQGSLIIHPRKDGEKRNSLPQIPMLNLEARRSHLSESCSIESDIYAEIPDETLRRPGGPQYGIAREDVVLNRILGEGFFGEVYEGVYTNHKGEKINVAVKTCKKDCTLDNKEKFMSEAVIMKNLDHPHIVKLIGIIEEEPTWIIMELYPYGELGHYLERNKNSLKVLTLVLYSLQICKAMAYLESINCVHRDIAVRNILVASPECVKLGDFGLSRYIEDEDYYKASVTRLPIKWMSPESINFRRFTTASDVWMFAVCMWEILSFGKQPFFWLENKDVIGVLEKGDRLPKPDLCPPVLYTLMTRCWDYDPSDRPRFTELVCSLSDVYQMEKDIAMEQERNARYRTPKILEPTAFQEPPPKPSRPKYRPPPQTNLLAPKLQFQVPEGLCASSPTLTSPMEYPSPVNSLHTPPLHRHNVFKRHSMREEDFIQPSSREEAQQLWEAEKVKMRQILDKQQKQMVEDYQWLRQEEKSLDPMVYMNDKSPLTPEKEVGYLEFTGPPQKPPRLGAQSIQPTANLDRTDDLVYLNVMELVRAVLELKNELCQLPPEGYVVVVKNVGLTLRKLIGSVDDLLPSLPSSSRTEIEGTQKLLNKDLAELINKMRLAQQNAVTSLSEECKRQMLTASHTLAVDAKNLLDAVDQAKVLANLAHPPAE

Zap-70 = biological target: T2, Zap-70 (Homo sapiens, UniProt P43403); details: Jurkat cells, anti-CD3 10 minutes, increasing concentrations 0, 12.5, 50 mcg/ml
T2 sequence (P43403 1-619): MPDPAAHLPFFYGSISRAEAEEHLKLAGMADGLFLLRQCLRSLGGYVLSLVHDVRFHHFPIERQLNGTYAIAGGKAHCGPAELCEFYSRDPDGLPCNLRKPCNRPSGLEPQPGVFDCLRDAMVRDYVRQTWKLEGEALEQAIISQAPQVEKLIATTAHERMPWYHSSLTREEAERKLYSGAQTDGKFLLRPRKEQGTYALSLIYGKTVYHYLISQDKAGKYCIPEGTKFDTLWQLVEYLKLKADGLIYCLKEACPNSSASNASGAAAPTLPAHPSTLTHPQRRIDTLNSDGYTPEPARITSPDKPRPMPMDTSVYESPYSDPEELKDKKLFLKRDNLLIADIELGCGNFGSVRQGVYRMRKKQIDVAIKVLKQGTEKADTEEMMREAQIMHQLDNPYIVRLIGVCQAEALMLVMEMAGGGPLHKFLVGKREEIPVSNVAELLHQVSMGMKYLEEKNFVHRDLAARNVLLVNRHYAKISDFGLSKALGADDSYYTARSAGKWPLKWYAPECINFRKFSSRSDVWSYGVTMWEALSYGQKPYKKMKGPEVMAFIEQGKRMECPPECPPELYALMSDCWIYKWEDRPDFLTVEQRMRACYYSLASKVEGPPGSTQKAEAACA

[2] = tested on: ovalbumin-specific CD8 T cells; experiment: Expansion of adoptively transferred OT-1 transgenic T cells, tetramer/CD8 FACs; details: 200 mg/kg daily oral gavage from Day-7 for 20 days plus GM.ova on day 3; Day 9; relative to immunotherapy alone
[3] = tested on: IFN-gamma-secreting T-cells; experiment: Naïve T-cell priming, IFN-gamma-secreting T-cells in splenocytes, TKI started before immunization; details: 200 mg/kg daily oral gavage prior to and/or concurrently with cytokine-expressing cancer immunotherapy; ovalbumin-specific peptide stimulation

Compound	number of ova-antigen activated T-cells (IFN-gamma-secreting T-cells per 5×10^5 splenocytes) [1]	amount of phosphorylated Pyk2 (Pyk2)	amount of phosphorylated Zap-70 (Zap-70)	absolute number of ovalbumin-specific CD8 T cells in spleen and lymph nodes [2]	number of primed naïve T-cells (IFN-gamma-secreting T-cells per 5×10^5 splenocytes) [3]
COc1cc2ncnc(Nc3ccc(F)c(Cl)c3)c2cc1OCCCN1CCOCC1 [genfitinib]	slight increase	decreased	decreased	increased	decrease
C#Cc1cccc(Nc2ncnc3cc(OCCOC)c(OCCOC)cc23)c1 [erolotinib, N-(3-ethynylphenyl)-6,7-bis(2-methoxy)-4-quinazolinamine]	slight increase	decreased		increased	decrease

— patent US20070231298A1, “Cytokine-expressing cancer immunotherapy combinations” (Cell Genesys, Inc., priority 2006, published 2007)
